≈ marks a conversion by molar mass, not a printed value. Like-named read-outs stand apart in the source and are kept apart here.
Assays:
[1] = BPO solubility in water and in binary mixtures with surfactants; conditions: water
From the text: The concentration of all surfactants was fixed at 6% w/w active.

[2] = cited from earlier work
[3] = in water and propylene glycol, storage; cited from earlier work
[4] = Chemical stability of BPO in wash formulations, shelf life prediction; type: physicochemical; conditions: wash formulations with increasing sorbitol concentrations
Protocol: BPO stability in the formulations of the present invention were assessed over time at 25° C./60% RH and 30° C./65% RH using environmentally controlled chambers. Specifically formulations containing 2.5% BPO or 10% BPO in glass vials were placed on stability, and monitored for BPO degradation.
Chemical stability of the BPO in surfactant based wash products is a challenge due to increased solubility of the BPO in these systems.

| effect on BPO stability (benzoic acid generated) [4] | SMILES | solubility [1] | half-life of BPO in solution in water ([2]; pH 4) | half-life of BPO in solution in water ([2]; pH 7) | stability of benzoyl peroxide in suspension (dispersed form) [3] |
| --- | --- | --- | --- | --- | --- |
| – | O=C(OOC(=O)c1ccccc1)c1ccccc1 [BPO, Benzoyl peroxide] | 3 µg/mL (≈ 12.4 µM) | 11.87 h | 5.20 h | not degraded after 90 days |
| improve BPO stability | OC[C@@H](O)[C@@H](O)[C@H](O)[C@@H](O)CO [sorbitol, D-Sorbitol] | – | – | – | – |
